Measured values: patent publication US20250171420A1 (Monte Rosa Therapeutics, Inc., priority 2022, published 2025)

What was measured:
CK1α = target: T1, CK1α (Homo sapiens, UniProt P48729); test: CK1α NanoBit Assay (HiBiT-tagged CSNK1A1, HEK293 clonal lines); format: cell-based; conditions: HEK293 HiBiT-CSNK1A1/LgBiT cells, 24 h incubation
T1 construct: HEK293 clonal lines with CRISPR KI HiBiT tag on CSNK1A1
Method in brief: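 HEK293 clones carrying a CRISPR knock-in HiBiT tag on CSNK1A1 and stably expressing LgBiT are treated with compound for 24 hours at 37° C, 5% CO2, then read by luminescence. Response is normalized as 100*(S−N)/(P−N) against plate negative and positive controls, and DC50 values are derived.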

CRBN/DDB1 = CRBN/DDB1 (Homo sapiens, UniProt Q96SW2); test: HTRF binding assay (displacement of Cy5-thalidomide probe from CRBN/DDB1); conditions: CRBN/DDB1 2.5 nM, Cy5-Thalidomide 100 nM, 30 min; geometric mean; read-out: HTRF_Thali_Disp_DR_geo_IC50
Source text: Binding of test compounds to CRBN/DDB1 was monitored in an HTRF assay using 1-[5-({2-[2-(2-{[2-(2,6-dioxopiperidin-3-yl)-1,3-dioxo-2,3-dihydro-1H-isoindol-4-yl]oxy}acetamido)ethoxy]ethyl}carbamoyl)pentyl]-3,3-dimethyl-2-[(1E,3E)-5-[(2E)-1,3,3-trimethyl-5-sulfo-2,3-dihydro-1H-indol-2-ylidene]penta-1,3-dien-1-yl]-3H-indol-1-ium-5-sulfonate as a fluorescent probe. In this assay, compounds displace the fluorescently labeled thalidomide-based probe bound to CRBN and fluorescence is monitored with increasing compound concentration. Assays were conducted in Greiner white 384 well HiBase plates (Cat. No 784075-25) in 10 μL total volume. A one pot detection solution of CRBN/DDB1 (2.5 nM), anti-His Terbium Cryptate Gold (1×, PerkinElmer Cat. #: 61HI2TLB), and Cy5-Thalidomide (100 nM, Tenova Cat.: T52461) was prepared in 20 mM HEPES, 20 mM NaCl, 0.2 mM TCEP, 0.2 mM EDTA, and 0.005% Tween20 was dispensed to each assay plate. Test compounds were stored in dry, ambient temperatures at 10 mM. A 10-point, 1:3 dilution series was prepared from 10 mM stock concentrations in Echo-compatible LDV plates. 10 nL of each compound dilution series was dispensed into assays wells using an Echo 650 (Labcyte inc. USA). 10 nL of 10 mM lenalidomide (Selleckchem Cat no. S1029) was transferred into the active-control wells for the assay and 10 nL of DMSO was transferred into the negative control wells. The assay was then allowed to incubate for 30 min at ambient temperature after transferring the test compounds. Plate measurements were taken on a Pherastar FSX (BMG Labtech, Germany) using the HTRF Red filter (Ex. 337 nm, em1: 620 nm, em2: 665 nm) (Flashes: 50, Integration time: 60-400 μs, Z-height: 10 mm, Ratio-multiplier: 10,000). Analysis, HTRF ratio and IC50 values were derived using KNIME analytics (KNIME Zurich) transformation and fitting within Collaborative Drug Discovery (Collaborative Drug Discovery USA) using a 4-parameter logistic fit. HTRF ratio calculation was performed using the following formula: […]
where Y represents the HTRF ratio response (as defined previously), X the compound concentration in μM, Ymin the minimum response plateau, Ymax the maximum response plateau, IC50 the concentration of agonist that gives a response half way between Ymin and Ymax and HillSlope the steepness of the family of curves. No fitting model constraints was applied on Ymin, or Ymax whilst IC50>0 and −0.5>HillSlope>−3
Ki values were derived from the geometric mean of the IC50 values using the Cheng-Prusoff transformation:
where [L] represents the concentration of fluorescent probe in μM, Kd the affinity (binding constant) of the fluorescent probe in units of μM and IC50 the concentration of agonist that gives a response halfway between Ymin and Ymax (as described in 1.2.1)
Analysis and IC50 values were derived using KNIME analytics (KNIME, Zurich) transformation and fitting within Collaborative Drug Discovery (Collaborative Drug Discovery, USA) as described in 1.2.1. Ki values were derived from the geometric mean of the IC50 values using the Cheng-Prusoff transformation as described in 2.2.2. Data was visualized in GraphPad Prism 8.1.2 (GraphPad, USA) and reported as mean and standard deviation. Microsoft Office Excel 2012 (Redmond, WA) was used for calculation of mean and standard deviation.
IC50 data are reported in Table 3 for compounds in Table 1. In Table 3 below, According to the code, A represents a IC50 value of ≤0.1 μM, B represents a IC50 value>0.1 μM and ≤1 μM, C represents an IC50 value>1 μM.

T1 sequence (P48729 whole entry): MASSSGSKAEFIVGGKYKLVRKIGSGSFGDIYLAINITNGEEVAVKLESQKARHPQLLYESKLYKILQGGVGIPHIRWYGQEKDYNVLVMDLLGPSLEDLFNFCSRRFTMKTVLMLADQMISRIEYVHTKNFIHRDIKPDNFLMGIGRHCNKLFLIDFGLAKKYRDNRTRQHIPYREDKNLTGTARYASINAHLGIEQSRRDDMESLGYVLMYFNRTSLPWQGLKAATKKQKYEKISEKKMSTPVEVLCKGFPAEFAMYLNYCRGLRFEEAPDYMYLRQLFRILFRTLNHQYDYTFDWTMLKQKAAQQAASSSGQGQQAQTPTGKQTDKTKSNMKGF
T1 sequence (Q96SW2 whole entry, further chain): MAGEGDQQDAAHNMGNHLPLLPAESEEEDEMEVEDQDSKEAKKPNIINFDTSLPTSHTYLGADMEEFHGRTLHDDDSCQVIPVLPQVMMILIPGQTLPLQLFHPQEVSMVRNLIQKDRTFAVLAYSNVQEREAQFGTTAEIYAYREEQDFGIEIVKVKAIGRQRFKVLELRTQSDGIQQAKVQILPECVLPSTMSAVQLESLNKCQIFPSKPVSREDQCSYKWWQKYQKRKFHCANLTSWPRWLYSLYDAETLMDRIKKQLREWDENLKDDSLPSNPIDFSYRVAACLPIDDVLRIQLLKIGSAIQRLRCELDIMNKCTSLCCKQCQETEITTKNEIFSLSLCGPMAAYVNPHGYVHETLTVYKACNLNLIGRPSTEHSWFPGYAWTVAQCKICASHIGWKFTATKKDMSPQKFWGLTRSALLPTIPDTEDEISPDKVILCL
T1 sequence (Q16531 2-1140 partner limits assumed): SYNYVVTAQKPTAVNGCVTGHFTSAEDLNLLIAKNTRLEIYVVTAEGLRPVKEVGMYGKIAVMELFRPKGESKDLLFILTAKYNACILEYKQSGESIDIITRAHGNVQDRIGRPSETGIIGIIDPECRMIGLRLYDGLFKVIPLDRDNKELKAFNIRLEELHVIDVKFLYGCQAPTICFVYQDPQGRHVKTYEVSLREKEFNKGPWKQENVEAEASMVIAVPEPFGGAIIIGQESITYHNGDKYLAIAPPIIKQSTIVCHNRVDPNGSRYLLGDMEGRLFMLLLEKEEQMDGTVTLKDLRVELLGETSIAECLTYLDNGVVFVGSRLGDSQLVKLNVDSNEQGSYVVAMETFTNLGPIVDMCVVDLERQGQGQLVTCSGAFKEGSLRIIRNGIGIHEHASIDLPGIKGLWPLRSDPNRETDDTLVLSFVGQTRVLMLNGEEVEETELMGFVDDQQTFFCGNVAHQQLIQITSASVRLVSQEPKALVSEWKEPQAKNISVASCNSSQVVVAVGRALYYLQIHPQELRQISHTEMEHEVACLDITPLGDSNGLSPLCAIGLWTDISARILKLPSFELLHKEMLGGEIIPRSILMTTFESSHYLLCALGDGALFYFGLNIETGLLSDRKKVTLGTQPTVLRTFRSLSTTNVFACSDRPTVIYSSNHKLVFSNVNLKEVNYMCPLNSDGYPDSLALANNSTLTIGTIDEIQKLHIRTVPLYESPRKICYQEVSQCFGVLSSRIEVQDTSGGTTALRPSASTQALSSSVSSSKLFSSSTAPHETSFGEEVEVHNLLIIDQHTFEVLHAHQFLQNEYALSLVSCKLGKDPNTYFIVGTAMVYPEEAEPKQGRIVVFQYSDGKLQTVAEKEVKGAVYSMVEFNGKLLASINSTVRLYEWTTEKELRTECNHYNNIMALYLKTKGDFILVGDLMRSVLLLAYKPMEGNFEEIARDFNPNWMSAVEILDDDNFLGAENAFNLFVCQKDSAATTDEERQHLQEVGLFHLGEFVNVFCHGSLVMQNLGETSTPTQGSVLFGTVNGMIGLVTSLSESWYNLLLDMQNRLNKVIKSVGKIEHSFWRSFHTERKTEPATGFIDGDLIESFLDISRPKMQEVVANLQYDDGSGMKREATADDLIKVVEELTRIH
CRBN/DDB1, sequence (Q96SW2 whole entry, species assumed): as the sequence (Q96SW2 whole entry, further chain) above
CRBN/DDB1, sequence (Q16531 whole entry partner, species assumed): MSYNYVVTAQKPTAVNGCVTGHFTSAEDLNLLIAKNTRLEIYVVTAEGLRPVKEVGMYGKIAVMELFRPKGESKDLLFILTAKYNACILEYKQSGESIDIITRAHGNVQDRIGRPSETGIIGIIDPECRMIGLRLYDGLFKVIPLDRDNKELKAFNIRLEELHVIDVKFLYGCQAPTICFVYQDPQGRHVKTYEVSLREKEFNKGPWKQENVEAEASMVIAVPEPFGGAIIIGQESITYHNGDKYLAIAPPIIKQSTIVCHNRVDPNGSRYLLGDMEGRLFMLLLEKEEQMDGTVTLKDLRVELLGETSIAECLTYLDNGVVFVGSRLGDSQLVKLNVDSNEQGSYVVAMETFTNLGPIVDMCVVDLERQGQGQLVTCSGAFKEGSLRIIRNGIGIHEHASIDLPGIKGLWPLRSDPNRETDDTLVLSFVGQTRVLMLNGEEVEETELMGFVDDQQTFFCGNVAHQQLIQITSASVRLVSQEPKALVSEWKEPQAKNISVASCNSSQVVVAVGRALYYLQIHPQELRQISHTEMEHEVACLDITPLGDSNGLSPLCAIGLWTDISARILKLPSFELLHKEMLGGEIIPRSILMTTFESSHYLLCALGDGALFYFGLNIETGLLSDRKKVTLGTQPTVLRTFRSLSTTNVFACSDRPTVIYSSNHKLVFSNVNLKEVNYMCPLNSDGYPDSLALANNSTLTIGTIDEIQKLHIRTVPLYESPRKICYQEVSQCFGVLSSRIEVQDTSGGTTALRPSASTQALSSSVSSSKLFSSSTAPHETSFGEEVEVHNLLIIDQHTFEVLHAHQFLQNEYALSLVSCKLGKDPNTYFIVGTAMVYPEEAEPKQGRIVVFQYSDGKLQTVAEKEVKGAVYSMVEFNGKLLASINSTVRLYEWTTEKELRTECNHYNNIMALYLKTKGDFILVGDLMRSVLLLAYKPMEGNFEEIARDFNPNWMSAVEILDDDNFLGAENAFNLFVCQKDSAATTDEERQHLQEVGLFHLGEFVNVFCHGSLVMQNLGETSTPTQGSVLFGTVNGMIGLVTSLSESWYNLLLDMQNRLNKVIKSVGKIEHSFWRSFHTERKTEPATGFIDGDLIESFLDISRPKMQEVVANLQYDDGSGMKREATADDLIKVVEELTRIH

Compound | DC50 (CK1α) [µM] | IC50 (CRBN/DDB1) [nM]
O=C1CCC(N2Cc3cc(NC(=O)N4c5ccccc5C[C@H]4COC(F)F)ccc3C2=O)C(=O)N1 (stereo partly drawn) [Compound 309, (2S)-2-((difluoromethoxy)methyl)-N-(2-(2,6-dioxopiperidin-3-yl)-1-oxoisoindolin-5-yl)indoline-1-carboxamide] | < 0.1 | 100 to 1000
NC[C@@H]1Cc2ccccc2N1C(=O)Nc1ccc2c(c1)CN(C1CCC(=O)NC1=O)C2=O (stereo partly drawn) [Compound 310, (2S)-2-(aminomethyl)-N-(2-(2,6-dioxopiperidin-3-yl)-1-oxoisoindolin-5-yl)indoline-1-carboxamide] | 0.1 to 1 | 100 to 1000
O=C1CCC(N2Cc3cc(NC(=O)N4c5ccccc5C[C@H]4COC(F)(F)F)ccc3C2=O)C(=O)N1 (stereo partly drawn) [Compound 311, (2S)—N-(2-(2,6-dioxopiperidin-3-yl)-1-oxoisoindolin-5-yl)-2-((trifluoromethoxy)methyl)indoline-1-carboxamide] | < 0.1 | 100 to 1000
CNC[C@@H]1Cc2ccccc2N1C(=O)Nc1ccc2c(c1)CN(C1CCC(=O)NC1=O)C2=O (stereo partly drawn) [Compound 312, (2S)—N-(2-(2,6-dioxopiperidin-3-yl)-1-oxoisoindolin-5-yl)-2-((methylamino)methyl)indoline-1-carboxamide] | 0.1 to 1 | 100 to 1000
CCOC[C@@H]1Cc2ccccc2N1C(=O)Nc1ccc2c(c1)CN(C1CCC(=O)NC1=O)C2=O (stereo partly drawn) [Compound 313, (2S)—N-(2-(2,6-dioxopiperidin-3-yl)-1-oxoisoindolin-5-yl)-2-(ethoxymethyl)indoline-1-carboxamide] | < 0.1 | 100 to 1000
COC[C@@H]1Cc2c(F)cccc2N1C(=O)Nc1ccc2c(c1)CN(C1CCC(=O)NC1=O)C2=O (stereo partly drawn) [Compound 314, (2S)—N-(2-(2,6-dioxopiperidin-3-yl)-1-oxoisoindolin-5-yl)-4-fluoro-2-(methoxymethyl)indoline-1-carboxamide] | < 0.1 | 100 to 1000
O=C1CCC(N2Cc3cc(NC(=O)N4c5ccccc5C[C@H]4CN4CCC4)ccc3C2=O)C(=O)N1 (stereo partly drawn) [Compound 315, (2S)-2-(azetidin-1-ylmethyl)-N-(2-(2,6-dioxopiperidin-3-yl)-1-oxoisoindolin-5-yl)indoline-1-carboxamide] | 0.1 to 1 | 100 to 1000
O=C1CCC(N2Cc3cc(NC(=O)N4c5ccccc5C[C@H]4COCC(F)(F)F)ccc3C2=O)C(=O)N1 (stereo partly drawn) [Compound 316, (2S)—N-(2-(2,6-dioxopiperidin-3-yl)-1-oxoisoindolin-5-yl)-2-((2,2,2-trifluoroethoxy)methyl)indoline-1-carboxamide] | < 0.1 | 100 to 1000
O=C1CCC(N2Cc3cc(NC(=O)N4CC5(CCOC5)c5ccccc54)ccc3C2=O)C(=O)N1 (centres unmarked) [Compound 317, N-(2-(2,6-dioxopiperidin-3-yl)-1-oxoisoindolin-5-yl)-4,5-dihydro-2H-spiro[furan-3,3′-indoline]-1′-carboxamide] | < 0.1 | 100 to 1000
COC[C@@H]1Cc2cc(C(F)(F)F)ccc2N1C(=O)Nc1ccc2c(c1)CN(C1CCC(=O)NC1=O)C2=O (stereo partly drawn) [Compound 318, (2S)—N-(2-(2,6-dioxopiperidin-3-yl)-1-oxoisoindolin-5-yl)-2-(methoxymethyl)-5-(trifluoromethyl)indoline-1-carboxamide] | < 0.1 | 100 to 1000
COC[C@H]1CN(C(=O)Nc2ccc3c(c2)CN(C2CCC(=O)NC2=O)C3=O)c2ccc(C(F)(F)F)cc21 (stereo partly drawn) [Compound 319, (3R)—N-(2-(2,6-dioxopiperidin-3-yl)-1-oxoisoindolin-5-yl)-3-(methoxymethyl)-5-(trifluoromethyl)indoline-1-carboxamide] | < 0.1 | 100 to 1000
COCC1C2c3ccccc3N(C(=O)Nc3ccc4c(c3)CN(C3CCC(=O)NC3=O)C4=O)C12 (centres unmarked) [Compound 320, N-(2-(2,6-dioxopiperidin-3-yl)-1-oxoisoindolin-5-yl)-1-(methoxymethyl)-1a, 6b-dihydrocyclopropa[b]indole-2(1H)-carboxamide] | < 0.1 | 100 to 1000
COCC1Cc2cc(C(F)(F)F)ncc2N1C(=O)Nc1ccc2c(c1)CN(C1CCC(=O)NC1=O)C2=O (centres unmarked) [Compound 321, N-(2-(2,6-dioxopiperidin-3-yl)-1-oxoisoindolin-5-yl)-2-(methoxymethyl)-5-(trifluoromethyl)-2,3-dihydro-1H-pyrrolo[2,3-c]pyridine-1-carboxamide] | < 0.1 | 100 to 1000
O=C1CCC(N2Cc3cc(NC(=O)N4c5ccccc5CC45COC5)ccc3C2=O)C(=O)N1 (centres unmarked) [Compound 322, N-(2-(2,6-dioxopiperidin-3-yl)-1-oxoisoindolin-5-yl)spiro[indoline-2,3′-oxetane]-1-carboxamide] | < 0.1 | 100 to 1000
CN(C)C[C@@H]1Cc2ccccc2N1C(=O)Nc1ccc2c(c1)CN(C1CCC(=O)NC1=O)C2=O (stereo partly drawn) [Compound 323, (2S)-2-((dimethylamino)methyl)-N-(2-(2,6-dioxopiperidin-3-yl)-1-oxoisoindolin-5-yl)indoline-1-carboxamide] | 0.1 to 1 | 100 to 1000
COCC1c2ccc(C(F)(F)F)cc2CN1C(=O)Nc1ccc2c(c1)CN(C1CCC(=O)NC1=O)C2=O (centres unmarked) [Compound 324, N-(2-(2,6-dioxopiperidin-3-yl)-1-oxoisoindolin-5-yl)-1-(methoxymethyl)-5-(trifluoromethyl)isoindoline-2-carboxamide] | < 0.1 | 100 to 1000
COC[C@@H]1Cc2c(cccc2C(F)(F)F)N1C(=O)Nc1ccc2c(c1)CN(C1CCC(=O)NC1=O)C2=O (stereo partly drawn) [Compound 325, (2S)—N-(2-(2,6-dioxopiperidin-3-yl)-1-oxoisoindolin-5-yl)-2-(methoxymethyl)-4-(trifluoromethyl)indoline-1-carboxamide] | < 0.1 | 100 to 1000
CNC(=O)[C@@H]1Cc2ccccc2N1C(=O)Nc1ccc2c(c1)CN(C1CCC(=O)NC1=O)C2=O (stereo partly drawn) [Compound 326, (2S)—N^1-(2-(2,6-dioxopiperidin-3-yl)-1-oxoisoindolin-5-yl)-N^2-methylindoline-1,2-dicarboxamide] | 0.1 to 1 | 100 to 1000
CN(C)C(=O)[C@@H]1Cc2ccccc2N1C(=O)Nc1ccc2c(c1)CN(C1CCC(=O)NC1=O)C2=O (stereo partly drawn) [Compound 327, (2S)-N1-(2-(2,6-dioxopiperidin-3-yl)-1-oxoisoindolin-5-yl)-N2,N2-dimethylindoline-1,2-dicarboxamide] | 0.1 to 1 | 100 to 1000
COC[C@@H]1CN(C(=O)Nc2ccc3c(c2)CN(C2CCC(=O)NC2=O)C3=O)c2ccccc21 (stereo partly drawn) [Compound 328, (3S)—N-(2-(2,6-dioxopiperidin-3-yl)-1-oxoisoindolin-5-yl)-3-(methoxymethyl)indoline-1-carboxamide] | < 0.1 | 100 to 1000
COCc1ccc2c(c1)CCN2C(=O)Nc1ccc2c(c1)CN(C1CCC(=O)NC1=O)C2=O (centres unmarked) [Compound 330, N-(2-(2,6-dioxopiperidin-3-yl)-1-oxoisoindolin-5-yl)-5-(methoxymethyl)indoline-1-carboxamide] | < 0.1 | 100 to 1000
COCC1c2ccc(C)cc2CN1C(=O)Nc1ccc2c(c1)CN(C1CCC(=O)NC1=O)C2=O (centres unmarked) [Compound 331, N-(2-(2,6-dioxopiperidin-3-yl)-1-oxoisoindolin-5-yl)-1-(methoxymethyl)-5-methylisoindoline-2-carboxamide] | < 0.1 | 100 to 1000
